Measured values reported in paper PMC10058583, “Development of Novel Fluorinated Polyphenols as Selective Inhibitors of DYRK1A/B Kinase for Treatment of Neuroinflammatory Diseases including Parkinson’s Disease” (Pharmaceuticals, 2023).
Like-named read-outs stand apart in the source and are kept apart here.

Assay: Pharmacokinetic studies in C57BL/6 mice (plasma and tissues)
Assay type: in vivo, mouse
Details: for AUC(0-t) / Cmax / Tmax / AUC(0-inf) / half-life / bioavailability: both sexes, C57BL/6, mouse; for bioavailability: read-out: F (absolute bioavailability)
Description: To overcome the generally poor PK profile of catechins, we developed a proprietary formulation that allows for the delivery of these drugs in high concentrations for oral (PO) or intranasal (IN) use. Our liquid formulation is based on the solubilizer and penetration enhancer (2-hydroxypropyl)-β-cyclodextrin (HP-β-CD), PEG-400, and water. This vehicle allows us to achieve high drug concentration in dosing solution (up to 20% w/w) when needed. PK studies were conducted for 1c in adult male and female C57BL/6 mice (n = 3/sex/time point) using (1) a single IV dose (5 mg/kg), (2) an IN dose (60 mg/kg, 5 µL of a clear solution/nostril/twice), and (3) a single PO dose (100 mg/kg). We analyzed the concentration of the drug in several tissues, including the brain, lungs, liver, and plasma. We observed that this class of molecules is stable in circulation; however, when the tissues are harvested for bioanalytical work, the drug undergoes rapid degradation, probably because of the direct contact with oxygen and metals, which catalyzes its rapid degradation/oxidation. We were able to stabilize the drug in blood by the immediate addition of ascorbic acid and TCEP [29]; however, the same was not possible with solid organs such as the brain and liver, which need to be collected through surgery and homogenized before any stabilizing agent can be added. Therefore, tissue PK data tend to vary.
C57BL/6J mice were given a single dose of drug via the IN or PO route. […] For PO delivery, we replaced water with saline. The volume for IN delivery was 5 µL/nostril, and the volume used for oral delivery was 10 mL/kg. After sacrifice, blood (500 µL) was collected into K2EDTA microtubes and kept on ice all times (must be centrifuged within 30 min of collection). Blood was centrifuged in EDTA vacuum at 4 °C at 15,000× g for 4 min; ~250 µL of plasma was collected into polyethylene tubes containing 50 µL of AA/TCEP stabilizing solution (20 mM ascorbic acid and 13 mM TCEP in 50 mM K2HPO4 buffer; the pH of the solution was adjusted to 6.5 using 2 M NaOH). Then, 200 µL of the collected plasma was mixed with (1) 24 µL of a solution of 10% ascorbic acid and 0.1% EDTA in 40 mM NaH2PO4; (2) 40 µL of 50 mM sodium phosphate (pH 7.4); (3) 500 units of β-D-glucuronidase type X-A from Escherichia coli (Sigma Chemical Co, St Louis, MO, USA), and (4) 4 units of sulfatase type VIII from abalone entrails (Sigma Chemical Co). The mixture was incubated at 37 °C for 45 min. Plasma was then extracted by the addition of 0.5 mL ACN; the mixture was vortex-mixed for 2 min, then snap-frozen with isopropanol/carbon dioxide dry ice, and the upper layer of ACN was removed. The process was repeated another 2 times. The ACN fractions were pooled into a polyethylene tube kept on ice. The combined fractions were evaporated under a gentle stream of nitrogen at ambient temperature. The residue obtained after evaporation was reconstituted in 200 µL of 75 mM citric acid//25 mM ammonium acetate: ACN (75:25 by vol), and vortexed vigorously for 5 min, and 20 µL of the resulting solution was injected into the LC-MS/MS column.
Drug analysis in tissues: About ~0.4 g of the tissue was homogenized with 1 mL of ice-cold 0.4 M sodium phosphate buffer containing 6 mg of ascorbic acid and 0.5 mg of Na2EDTA (final pH of 6.5). After centrifugation at 4 °C at 15,000× g for 4 min, the supernatant was collected into polyethylene tubes containing 50 µL of the AA/TCEP stabilizing solution. Then 1 U of sulfatase and 250 U of β-glucuronidase were added to the abovementioned homogenized mixture. Samples were incubated at 37 °C for 45 min, then extracted, dried, and resuspended in a manner similar to that for plasma. Samples were then analyzed by LC-MS/MS.

[1] = inhaled or intranasal, IN (60 mg/kg), brain
[2] = inhaled or intranasal, IN (60 mg/kg), plasma

SMILES: COc1cc(C(=O)O[C@@H]2Cc3c(O)cc(O)cc3O[C@H]2c2cc(O)c(O)c(O)c2)c(F)c(O)c1O [Compound 1c]
- Tlast (IN (60 mg/kg), brain): 8 h
- Tlast (IN (60 mg/kg), plasma): 24 h
- Tlast (PO (100 mg/kg), brain): 24 h
- Tlast (PO (100 mg/kg), plasma): 24 h
- AUC(0-t) (PO (100 mg/kg), brain): 2390 ng·h/mL
- Cmax (PO (100 mg/kg), brain): 110 ng/mL
- Tmax (PO (100 mg/kg), brain): 2 h
- AUC(0-inf) (PO (100 mg/kg), plasma): 4280 ng·h/mL
- AUC(0-t) (PO (100 mg/kg), plasma): 4170 ng·h/mL
- Cmax (PO (100 mg/kg), plasma): 684 ng/mL
- Tmax (PO (100 mg/kg), plasma): 1 h
- half-life (PO (100 mg/kg), plasma): 4.7 h
- AUC(0-t) [1]: 116 ng·h/mL
- Cmax [1]: 18 ng/mL
- Tmax [1]: 0.5 h
- AUC(0-inf) [2]: 16100 ng·h/mL
- AUC(0-t) [2]: 15800 ng·h/mL
- Cmax [2]: 2350 ng/mL
- Tmax [2]: 2 h
- half-life [2]: 4.8 h
- AUC(0-inf) (plasma, iv, i.v. (5mg/kg)): 1390 ng·h/mL
- AUC(0-t) (plasma, iv, i.v. (5mg/kg)): 1280 ng·h/mL
- Cmax (plasma, iv, i.v. (5mg/kg)): 657 ng/mL
- Tmax (plasma, iv, i.v. (5mg/kg)): 0 h
- half-life (plasma, iv, i.v. (5mg/kg)): 3.2 h
- bioavailability (plasma, other: intranasal (IN), 60 mg/kg, IN (60 mg/kg), plasma): 100%
- bioavailability (plasma, po, 100 mg/kg, PO (100 mg/kg), plasma): ~16%
- Tlast (i.v. (5mg/kg)): 10 h
